In ChEMBL document CHEMBL5236615, “Discovery of Novel N-Heterocyclic-Fused Deoxypodophyllotoxin Analogues as Tubulin Polymerization Inhibitors Targeting the Colchicine-Binding Site for Cancer Treatment” (J Med Chem, 2022):
pIC50: −log10 of the molar value. Calls of active or inactive are those of the source. The rule behind the calls is not given here.

Experiments:
[1] = tested on: HT-29; assay: Antiproliferative activity against human HT-29 cells measured after 72 hrs by MTT assay; type: functional, cell-based; settings: HT-29, 72 h
[2] = tested on: HCT-116; assay: Antiproliferative activity against human HCT-116 cells measured after 72 hrs by MTT assay; type: functional, cell-based; settings: HCT-116, 72 h
[3] = Metabolic stability in human liver microsomes assessed as half life at 1 uM by LC/MS analysis; type: ADME, Microsome
[4] = Metabolic stability in human liver microsomes assessed as intrinsic clearance at 1 uM by LC/MS analysis; type: ADME, Microsome; settings: read-out: CLH
[5] = tested on: K562; assay: cells; settings: Homo sapiens, K562, 72 h
Description: Antiproliferative activity against human K562 cells measured after 72 hrs by MTT assay

[6] = tested on: MCF7; assay: cells; settings: Homo sapiens, MCF7, 72 h
Description: Antiproliferative activity against human MCF7 cells measured after 72 hrs by MTT assay

[7] = target: Tubulin beta (Homo sapiens) (UniProt P68371+Q9H4B7+Q13509+P04350+Q3ZCM7+P07437+Q13885+Q9BVA1+Q9BUF5+A6NNZ2); assay: Binding affinity to beta-tubulin colchicine binding site in human MCF-7 cells assessed as inhibition of EBI-beta-tubulin adduct band formation preincubated for 2 hrs followed by EBI addition and measured after 1.5 hrs by EBI competition based Western blotting analysis; type: cell-based; settings: MCF7, dose 0.2-25 µM, time 3.5 hrs
[8] = target: Tubulin (Homo sapiens) (UniProt P68371+Q9H4B7+P0DPH7+P68366+Q13509+Q71U36+P04350+Q3ZCM7+P07437+P68363+Q9BQE3+Q6PEY2+Q13885+Q9BVA1+Q9BUF5); assay: Disruption of microtubule network in human MCF7 cells assessed as broken microtubule filaments at 20 nM measured after 6 hrs by immunofluorescence assay; type: cell-based
[9] = Antiproliferative activity against paclitaxel-resistant human MCF7/TxR cells measured after 72 hrs by MTT assay; type: functional, cell-based
[10] = Antiproliferative activity against paclitaxel-resistant human A549/TxR cells measured after 72 hrs by MTT assay; type: functional, cell-based
[11] = Antitumor activity against paclitaxel-resistant human MCF7/TxR cells xenografted in Balb/c mouse assessed as tumor growth inhibition at 10 mg/kg, ip administered for every 2 days for 21 days; type: functional; settings: 504 h, time 21 day, read-out: TGI
[12] = Toxicity in Balb/c mouse assessed as pathological changes in blood alanine aminotransferase level at 10 mg/kg, ip administered for every 2 days for 14 days; type: organism-based; settings: in vivo, 336 h, time 14 day
[13] = Toxicity in Balb/c mouse assessed as pathological changes in blood aspartate aminotransferase level at 10 mg/kg, ip administered for every 2 days for 14 days; type: organism-based; settings: in vivo, 336 h, time 14 day

| SMILES | pIC50 [1] | pIC50 [2] | pIC50 [5] | pIC50 [6] | also measured |
| --- | --- | --- | --- | --- | --- |
| COc1c(Cl)cc([C@@H]2c3cc4c(cc3C[C@H]3COC(=O)N32)OCCO4)cc1Cl | 8.22 | 8.24 | 8.20 | 8.23 | half-life at 1 µM [3]: 2.95 min; CLint scaled at 1 µM [4]: 589 mL/min/kg |
| COc1cc([C@@H]2c3cc4c(cc3C[C@H]3C(=O)NCC(=O)N23)OCO4)cc(OC)c1OC | 5.72 | 5.91 | 6.10 | 5.63 | – |
| COc1cc([C@@H]2c3cc4c(cc3C[C@H]3COC(=O)N32)OCCCO4)cc2c1OCO2 | 6.21 | 6.86 | 6.71 | 6.02 | – |
| COc1cc([C@@H]2c3cc4c(cc3C[C@H]3C(=O)NC(=O)N23)OCO4)cc(OC)c1OC | 7.31 | 7.19 | 7.35 | 6.90 | – |
| O=C1OC[C@@H]2Cc3cc4c(cc3[C@@H](c3ccncc3)N12)OCO4 | < 5.30 | < 5.30 | < 5.30 | < 5.30 | – |
| COc1ccc([C@@H]2c3cc4c(cc3C[C@H]3COC(=O)N32)OCO4)cc1OC | 6.12 | < 5.30 | 6.23 | < 5.30 | – |
| COc1cc([C@@H]2c3cc4c(cc3C[C@H]3COC(=O)N32)OCCO4)ccc1F | 7.20 | 6.56 | 6.81 | 6.43 | – |
| COc1cc([C@@H]2c3cc4c(cc3C[C@H]3C(=O)NC(=O)N23)OCCO4)cc(OC)c1OC | 7.67 | 7.57 | 7.50 | 7.77 | half-life at 1 µM [3]: 21.4 min; CLint scaled at 1 µM [4]: 81.2 mL/min/kg |
| COc1cc([C@@H]2c3cc4c(cc3C[C@H]3COC(=O)N32)OCCCO4)cc(OC)c1OC | 7.09 | 6.92 | 6.97 | 7.23 | – |
| COc1cc([C@@H]2c3cc4c(cc3C[C@H]3COC(=O)N32)OCCO4)cc(OC)c1Br | 7.32 | 6.99 | 7.40 | 7.43 | – |
| COc1cc([C@@H]2c3cc4c(cc3C[C@H]3COC(=O)N32)OCO4)cc(OC)c1O | < 5.30 | < 5.30 | < 5.30 | < 5.30 | – |
| O=C1NC(=O)N2[C@H](c3cc(Cl)nc(Cl)c3)c3cc4c(cc3C[C@@H]12)OCCO4 | 6.45 | 6.27 | 6.37 | 6.40 | – |
| COc1cc([C@@H]2c3cc4c(cc3C[C@H]3C(=O)NCC(=O)N23)OCCO4)cc(OC)c1OC | 6.13 | 5.51 | 6.11 | 5.81 | – |
| COc1cc([C@@H]2c3cc4c(cc3C[C@H]3COC(=O)N32)OCCO4)cc2c1OCO2 | 7.35 | 7.29 | 7.53 | 7.45 | – |
| O=C1OC[C@@H]2Cc3cc4c(cc3[C@@H](c3cc(C(F)(F)F)cc(C(F)(F)F)c3)N12)OCCO4 | 7.25 | 6.51 | 6.70 | 7.00 | – |
| COc1c(Br)cc([C@@H]2c3cc4c(cc3C[C@H]3COC(=O)N32)OCCO4)cc1Br | 8.62 | 8.48 | 8.17 | 8.37 | half-life at 1 µM [3]: 1.27 min; CLint scaled at 1 µM [4]: 1370 mL/min/kg |
| CCCN1CC(=O)N2[C@H](c3cc(OC)c(OC)c(OC)c3)c3cc4c(cc3C[C@H]2C1=O)OCO4 | < 5.30 | < 5.30 | < 5.30 | < 5.30 | – |
| COc1cc2c(cc1OC)[C@@H](c1cc(OC)c(OC)c(OC)c1)N1C(=O)OC[C@@H]1C2 | < 5.30 | < 5.30 | < 5.30 | < 5.30 | – |
| O=C1OC[C@@H]2Cc3cc4c(cc3[C@@H](c3ccc(OC(F)F)c(OC(F)F)c3)N12)OCCO4 | 7.13 | 6.04 | 6.50 | 6.58 | – |
| COc1cc([C@@H]2c3cc4c(cc3C[C@H]3COC(=O)[C@@H]32)OCO4)cc(OC)c1OC [DESOXYPODOPHYLLOTOXIN] | 7.78 | 7.84 | 7.80 | 8.22 | half-life at 1 µM [3]: 1.12 min; CLint scaled at 1 µM [4]: 1440 mL/min/kg |

| SMILES | pIC50 [1] | pIC50 [2] | pIC50 [5] | pIC50 [6] | also measured |
| --- | --- | --- | --- | --- | --- |
| CCN1C(=O)[C@@H]2Cc3cc4c(cc3[C@@H](c3cc(OC)c(OC)c(OC)c3)N2C1=O)OCO4 | < 5.30 | < 5.30 | < 5.30 | < 5.30 | – |
| CCN1C(=O)[C@@H]2Cc3cc4c(cc3[C@@H](c3cc(OC)c(OC)c(OC)c3)N2C1=O)OCCO4 | < 5.30 | < 5.30 | < 5.30 | < 5.30 | – |
| COc1cc([C@@H]2c3cc4c(cc3C[C@H]3COC(=O)N32)OCO4)ccn1 | < 5.30 | < 5.30 | < 5.30 | < 5.30 | – |
| COc1ccc(/C=C\c2cc(OC)c(OC)c(OC)c2)cc1O [COMBRETASTATIN A4] | 6.41 | 8.17 | 7.95 | 8.23 | Activity [7]: Dose-Dependent Effect; Activity [8]: Active; pIC50 [9]: 7.81; pIC50 [10]: 7.30 |
| COc1cc([C@@H]2c3cc4c(cc3C[C@H]3COC(=O)N32)OCCO4)cc(OC)c1OC | 7.83 | 8.17 | 7.77 | 7.76 | half-life at 1 µM [3]: 2.19 min; CLint scaled at 1 µM [4]: 794 mL/min/kg |
| COc1c(Br)cc([C@H]2c3cc4c(cc3C[C@H]3C(=O)NC(=O)N23)OCCO4)cc1Br | < 5.30 | < 5.30 | < 5.30 | < 5.30 | – |
| COc1cc([C@@H]2c3cc4c(cc3C[C@H]3C(=O)NC(=O)N23)OCCO4)cc([N+](=O)[O-])c1OC | 7.30 | 7.50 | 7.27 | 7.39 | – |
| COc1cc([C@@H]2c3cc4c(cc3C[C@H]3C(=O)NC(=O)N23)OCCO4)cc(F)c1OC | 7.58 | 7.70 | 7.53 | 7.66 | – |
| CCCN1CC(=O)N2[C@H](c3cc(OC)c(OC)c(OC)c3)c3cc4c(cc3C[C@H]2C1=O)OCCO4 | < 5.30 | < 5.30 | < 5.30 | < 5.30 | – |
| CCN1C(=O)[C@@H]2Cc3cc4c(cc3[C@@H](c3cc(OC)c(OC)c(OC)c3)N2C1=S)OCO4 | < 5.30 | < 5.30 | < 5.30 | < 5.30 | – |
| COc1cc([C@@H]2c3cc4c(cc3C[C@H]3COC(=O)N32)OCO4)cc2c1OCO2 | 6.67 | 7.25 | 7.14 | 6.83 | – |
| CC(=O)O[C@H]1C(=O)[C@@]2(C)[C@H]([C@H](OC(=O)c3ccccc3)[C@]3(O)C[C@H](OC(=O)[C@H](O)[C@@H](NC(=O)c4ccccc4)c4ccccc4)C(C)=C1C3(C)C)[C@]1(OC(C)=O)CO[C@@H]1C[C@@H]2O [PACLITAXEL] | 7.97 | 7.20 | 7.53 | 7.71 | pIC50 [9]: 5.56; pIC50 [10]: 5.78; inhibition in vivo at 10 mg/kg [11]: 28.6%; Activity [12]: Toxic; Activity [13]: Toxic |
| COc1cc([C@@H]2c3cc4c(cc3C[C@H]3COC(=O)N32)OCO4)cc(OC)c1OC | 7.57 | 7.78 | 7.70 | 7.47 | – |
| COc1cc([C@@H]2c3cc4c(cc3C[C@H]3C(=O)N(C)C(=S)N23)OCCO4)cc(OC)c1OC | < 5.30 | < 5.30 | < 5.30 | < 5.30 | – |
| COc1cc([C@@H]2c3cc4c(cc3C[C@H]3C(=O)NC(=O)N23)OCCO4)cc2c1OCO2 | 7.13 | 7.33 | 7.04 | 7.44 | – |
| CCN1C(=O)[C@@H]2Cc3cc4c(cc3[C@@H](c3cc(OC)c(OC)c(OC)c3)N2C1=S)OCCO4 | < 5.30 | < 5.30 | < 5.30 | < 5.30 | – |
| COc1cc([C@@H]2c3cc4c(cc3C[C@H]3C(=O)N(C)C(=S)N23)OCO4)cc(OC)c1OC | < 5.30 | < 5.30 | < 5.30 | < 5.30 | – |
| O=C1NC(=O)N2[C@H](c3cc(Cl)c(F)c(Cl)c3)c3cc4c(cc3C[C@@H]12)OCCO4 | 7.63 | 7.64 | 7.31 | 7.31 | half-life at 1 µM [3]: 14.4 min; CLint scaled at 1 µM [4]: 121 mL/min/kg |
| COc1cc([C@@H]2c3cc4c(cc3C[C@H]3COC(=O)N32)OCCO4)cc(F)c1OC | 7.74 | 8.00 | 7.87 | 7.94 | – |
